Results on 1 molecule are retold here after paper PMC11257323, “Thermostabilization of a fungal laccase by entrapment in enzymatically synthesized levan nanoparticles” (PLOS ONE, 2024).

This assay addresses T1, LevS△N70Tn38 (Leuconostoc mesenteroides, UniProt Q1L7R6).
T1 construct: truncated levansucrase LevS△N70Tn38 (name implies N-terminal 70-residue deletion); pET-22b, expressed in E. coli BL21, DEAE-purified
Briefly: DNS reducing-sugar assay. The conditions noted are these: 292 mM sucrose; 50 mM acetate pH 6.0; 1 mM CaCl2; 30°C. In kind it is biochemical.

Molecules are shown by their SMILES.

T1 sequence (Q1L7R6 entry or part of it): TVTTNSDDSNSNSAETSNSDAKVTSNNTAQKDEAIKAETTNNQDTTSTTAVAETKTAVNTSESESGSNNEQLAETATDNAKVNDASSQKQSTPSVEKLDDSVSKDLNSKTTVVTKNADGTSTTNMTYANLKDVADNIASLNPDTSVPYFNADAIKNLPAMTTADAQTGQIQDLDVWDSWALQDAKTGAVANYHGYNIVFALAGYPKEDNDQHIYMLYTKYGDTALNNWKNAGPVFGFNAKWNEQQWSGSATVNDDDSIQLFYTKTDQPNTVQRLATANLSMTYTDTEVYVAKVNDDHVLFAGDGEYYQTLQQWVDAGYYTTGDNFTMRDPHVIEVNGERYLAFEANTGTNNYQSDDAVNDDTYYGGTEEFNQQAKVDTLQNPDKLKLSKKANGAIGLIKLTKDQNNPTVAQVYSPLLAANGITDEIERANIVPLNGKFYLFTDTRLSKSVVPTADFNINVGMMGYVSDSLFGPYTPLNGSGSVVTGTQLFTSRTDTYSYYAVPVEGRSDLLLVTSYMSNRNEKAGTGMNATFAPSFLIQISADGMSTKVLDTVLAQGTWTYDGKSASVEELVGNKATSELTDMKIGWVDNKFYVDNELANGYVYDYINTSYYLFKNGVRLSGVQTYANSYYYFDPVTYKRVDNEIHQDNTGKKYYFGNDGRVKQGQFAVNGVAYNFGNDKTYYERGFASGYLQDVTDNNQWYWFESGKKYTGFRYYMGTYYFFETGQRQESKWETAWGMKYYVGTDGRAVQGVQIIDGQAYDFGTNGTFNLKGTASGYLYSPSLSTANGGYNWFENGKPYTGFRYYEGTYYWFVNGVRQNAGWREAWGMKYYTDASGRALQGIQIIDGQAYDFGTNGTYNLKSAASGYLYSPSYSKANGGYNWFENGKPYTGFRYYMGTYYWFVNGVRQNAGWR

In the case of `OC[C@H]1O[C@@](CO)(O[C@H]2O[C@H](CO)[C@@H](O)[C@H](O)[C@H]2O)[C@@H](O)[C@@H]1O` [sucrose], the DNS reducing-sugar assay entry is recorded as “LevS△N70Tn38 activity was determined by quantification of released reducing sugars from sucrose”.
